In series [1] the target is T1, rat follicle stimulating hormone receptor (rFSHR) (Rattus norvegicus, UniProt P20395).
T1 construct: expressed in transfected cells
T1 sequence (P20395 18-692): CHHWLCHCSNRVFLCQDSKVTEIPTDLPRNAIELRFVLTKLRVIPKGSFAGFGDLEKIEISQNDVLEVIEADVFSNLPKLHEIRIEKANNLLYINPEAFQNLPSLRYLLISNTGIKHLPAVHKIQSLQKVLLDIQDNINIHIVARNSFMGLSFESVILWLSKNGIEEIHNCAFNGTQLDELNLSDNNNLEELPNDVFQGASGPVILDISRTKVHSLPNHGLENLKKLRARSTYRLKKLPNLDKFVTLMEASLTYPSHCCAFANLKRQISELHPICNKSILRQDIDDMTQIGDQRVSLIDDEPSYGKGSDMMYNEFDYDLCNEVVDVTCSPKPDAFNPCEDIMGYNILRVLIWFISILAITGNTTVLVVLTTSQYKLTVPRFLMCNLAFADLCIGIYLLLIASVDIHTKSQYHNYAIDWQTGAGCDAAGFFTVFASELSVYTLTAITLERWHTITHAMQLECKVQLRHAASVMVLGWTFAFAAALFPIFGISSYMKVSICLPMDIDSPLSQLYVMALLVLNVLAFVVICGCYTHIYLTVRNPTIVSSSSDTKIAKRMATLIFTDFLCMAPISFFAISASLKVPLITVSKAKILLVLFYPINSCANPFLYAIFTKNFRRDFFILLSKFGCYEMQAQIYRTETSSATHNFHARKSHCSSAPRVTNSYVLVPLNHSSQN
Briefly: Intracellular cAMP measurement (HTRF) assay, antagonism of EC70 of hFSH. The settings on record: HEK293 cells expressing rFSHR, 1 ng/ml hFSH (EC70), read-out: Class (IC50 to antagonise an EC70 of FSH receptors agonist such as hFSH). The series is classed as cell-based. An excerpt: Intracellular cAMP Measurement Assay
The Intracellular cAMP measurement assay is a functional cell-based assay used to study GPCR function. This method relies on a Time-Resolved Fluorescence (HTRF) assay to measure the cAMP accumulation upon receptor-mediated Gs protein activation in cells expressing recombinant GPCR or in cells from native tissues. In brief, this method is a competitive immunoassay between native cAMP produced by cells and the cAMP labeled with a fluorescent tag. The endogenously produced cAMP competes with exogenous added d2-labelled cAMP for the cAMP binding site on a Eu3+ cryptate labelled anti-cAMP antibody. The d2-labelled cAMP and the Eu^3+ labelled antibody produces a basal fluroresence via HTRF and therefore an intracellular increase in unlabelled cAMP is detected as decrease in this signal. cAMP is one of the most important intracellular mediators. Its concentration in cells can be increased upon binding of many hormones to their receptors. The most studied pathway consists in the release of α-subunit GTP-binding proteins following ligand-receptor interaction, which in turn activates or inhibits the ATP/cAMP conversion function of adenylate cyclase enzyme. cAMP is then involved in many complex regulatory processes such as protein kinase activation or ion channel gating. This method is widely used to study receptor activation of G protein in cells over-expressing GPCRs or in native cells, including FSH receptors expressing cells (Gabriel et al., Assay Drug Dev. Technol., 1, 291-303, 2003).
Transfection and cell culture: The cDNA encoding the rat follicle stimulating hormone receptor (rFSHR), (accession number NM_199237, NCBI Nucleotide database browser) was subcloned into an expression vector containing also the hygromycin resistance gene. Transfection of this vector into HEK293 cells with PolyFect reagent (Qiagen) according to supplier's protocol, and hygromycin treatment allowed selection of antibiotic resistant cells which had integrated stably one or more copies of the plasmid. Positive cellular clones expressing rFSHR were identified in a functional assay measuring cAMP production in cells following stimulation by addition of purified human follicle stimulating hormone (hFSH).
HTRF cAMP assay: On the day of the experiment, cells were detached from the Petri dish and distributed in a low volume, black-walled 384-well plate at a density of 5,000 cells/well in an assay buffer containing 1 mM IBMX to prevent cAMP degradation by cytoplasmic phosphodiesterases. The determination of the cAMP accumulation was performed using an HTRF assay (Trinquet et al., Anal. Biochem., 358, 126-135, 2006). Briefly, cells were incubated for 3 min in the presence of increasing concentrations of negative allosteric modulators (from 1 nM to 60 μM) and then 30 min in the presence of 1 ng/ml of hFSH, an agonist of rat FSH receptor, that has been determined in previous experiments to correspond to the EC70, a concentration that gives 70% of the maximal response of the agonist, and is in accordance with published data (Fox et al., Mol. Endocrin., 15, 378-389, 2001). […] Cells were then lysed by adding the HTRF assay components, the europium cryptate-labeled anti-cAMP antibody, and the XL665-labeled cAMP analog, previously diluted in a HEPES buffer (50 mM, pH 7.0) containing 0.8 M potassium fluoride, 0.2% (w/v) BSA, and 1% (v/v) Triton X-100, a percentage of detergent that ensure complete cell lysis. Assay was then incubated for 1 hr at room temperature, and HTRF signal was measured after excitation at 337 nm, and dual emission at 620 and 665 nm, using a RubyStar fluorimeter (BMG Labtechnologies). Moreover, the fluorescence ratio of an appropriate range of known concentrations of cAMP standards was also included on each assay plate to produce a standard cAMP curve. […]
(In general: TR-FRET usually uses a lanthanide donor and a delayed reading to cut background.)

Molecules are shown by their SMILES.

By IC50 is commonly meant the point on the concentration scale where inhibition reaches its midpoint. One may read the melting point as the temperature, or range, at which the solid turns liquid.

In the case of `COc1ccc(C(=O)Nc2ccc(C(C)(C)CNC(=O)CCc3ccccc3)cc2)cc1OC` [Example 34], the melting point is 149 to 151 °C. In addition, in series [1], the 50% inhibitory concentration (IC50) lay within 0.15 to 0.4 µM.
In turn, `COc1ccc(C(=O)Nc2ccc(C(C)(C)CN3CCOC3=O)cc2)cc1OC` [Example 60, N-{4-[1,1-Dimethyl-2-(2-oxo-oxazolidin-3-yl)-ethyl]-phenyl}-3,4-dimethoxy-benzamide] displayed a melting point of 190 to 191 °C.
As to `COc1ccc(C(=O)Nc2ccc(C(C)(C)CNC(=O)c3ccsc3)cc2)cc1OC` [Example 72], the melting point was in the range of 189 to 190 °C. Moreover, in series [1], the IC50 lay in the range of 0.15 to 0.4 µM.
Molecule `COc1cc(C(C)(C)C#N)ccc1NC(=O)c1ccc(OC)c(OC)c1` [Example 75, N-[4-(Cyano-dimethyl-methyl)-2-methoxy-phenyl]-3,4-dimethoxy-benzamide] yielded a melting point of 110 to 112 °C.
For the molecule `COc1ccc(C(=O)Nc2ccc(C(C)(C)CNC(=O)c3n[nH]c4ccccc34)cc2)cc1OC` [Example 87], the melting point lay within 214 to 216 °C. Moreover, the IC50 in series [1] fell in the range of 0.15 to 0.4 µM.
The molecule `COc1ccc(C(=O)Nc2cccc(C(C)(C)CNC(C)=O)c2)cc1OC` [Example 88, N-[3-(2-Acetylamino-1,1-dimethyl-ethyl)-phenyl]-3,4-dimethoxy-benzamide] showed a melting point of 132 to 134 °C.
Regarding `COc1ccc(C(=O)Nc2ccc(C(C)(C)CNC(=O)c3cc4ccccc4n3C)cc2)cc1OC` [Example 108], the melting point was in the range of 176 to 178 °C. The IC50 in series [1] lay in the range of 0.4 to 1 µM.
The matching figures for `COc1ccc(C(=O)Nc2ccc(C(C)(C)CNC(=O)c3csc4ccccc34)cc2)cc1OC` [Example 116]: 145 to 147 °C and less than 0.15 µM.
In turn, `COc1ccc(C(=O)Nc2ccc(C(C)(C)CNC(=O)Cc3c[nH]c4ccccc34)cc2)cc1OC` [Example 126] gave a melting point of 94 to 96 °C. The IC50 in series [1] fell in the range of 0.15 to 0.4 µM.
Consider `COc1ccc(C(=O)Nc2ccc(C(C)(C)CNC(C)=O)c(F)c2)cc1OC` [Example 151, N-[4-(2-Acetylamino-1,1-dimethyl-ethyl)-3-fluoro-phenyl]-3,4-dimethoxy-benzamide], for which the melting point is 186 to 188 °C.
For `COc1ccc(C(=O)Nc2ccc(C(C)(C)C#N)cc2)c(Cl)c1OC` [Example 153, 2-Chloro-N-[4-(cyano-dimethyl-methyl)-phenyl]-3,4-dimethoxy-benzamide], the melting point is 195 to 198 °C.
Still for that read-out and setting: the result for `COc1cc(Cl)c(C(=O)Nc2ccc(C(C)(C)C#N)cc2)cc1OC` [Example 155, 2-Chloro-N-[4-(cyano-dimethyl-methyl)-phenyl]-4,5-dimethoxy-benzamide] reads 142 to 144 °C; that for `COc1ccc(C(=O)Nc2ccc(C(C)(C)C#N)c(-c3cccc(Cl)c3)c2)cc1OC` [Example 157, N-[3′-Chloro-6-(cyano-dimethyl-methyl)-biphenyl-3-yl]-3,4-dimethoxy-benzamide], 144 to 146 °C; that for `COc1ccc(C(=O)Nc2ccc(C(C)(C)C#N)c(-c3ccncc3)c2)cc1OC` [Example 158, N-[4-(Cyano-dimethyl-methyl)-3-pyridin-4-yl-phenyl]-3,4-dimethoxy-benzamide], 196 to 199 °C.
For the molecule `CCOc1ccc(C(=O)Nc2ccc(C(C)(C)C#N)cc2)cc1OCC` [Example 160, N-[4-(Cyano-dimethyl-methyl)-phenyl]-3,4-diethoxy-benzamide], the melting point is 138 to 140 °C.
On to `COc1ccc(C(=O)Nc2ccc(C(C)(C)CNC(=O)c3cnc4ccccn34)cc2)cc1OC` [Example 161, Imidazo[1,2-a]pyridine-3-carboxylic acid {2-[4-(3,4-dimethoxy-benzoylamino)-phenyl]-2-methyl-propyl}-amide], for which the melting point is 181 to 183 °C.
In the case of `COc1ccc(C(=O)Nc2ccc(C(C)(C)CNC(=O)c3nc4ccccc4[nH]3)cc2)cc1OC` [Example 162, 1H-Benzoimidazole-2-carboxylic acid {2-[4-(3,4-dimethoxy-benzoylamino)-phenyl]-2-methyl-propyl}-amide], the melting point was in the range of 223 to 226 °C.
In turn, `COc1ccc(C(=O)Nc2ccc(C(C)(C)C#N)c(-c3cncnc3)c2)cc1OC` [Example 184, N-[4-(Cyano-dimethyl-methyl)-3-pyrimidin-5-yl-phenyl]-3,4-dimethoxy-benzamide] came in with a melting point of 198 to 200 °C. Moreover, the IC50 in series [1] was no less than 1 µM.
In the case of `COc1ccc(C(=O)Nc2ccc(C(C)(C)CNC(=O)c3ccc4nccn4c3)cc2)cc1OC` [Example 190], the melting point lay in the range of 194 to 196 °C. Moreover, the IC50 in series [1] was no less than 1 µM.
Take `COc1ccc(C(=O)Nc2ccc(C(C)(C)CNC(=O)c3nc4ccc(F)cc4[nH]3)cc2)cc1OC` [Example 193, 6-Fluoro-1H-benzoimidazole-2-carboxylic acid {2-[4-(3,4-dimethoxy-benzoylamino)-phenyl]-2-methyl-propyl}-amide]: the melting point lay within 222 to 224 °C. Also, the IC50 in series [1] was less than 0.15 µM.
In turn, `COc1ccc(C(=O)Nc2ccc(C(C)(C)CNC(C)=O)c(-c3cccnc3)c2)cc1OC` [Example 195, N-[4-(2-Acetylamino-1,1-dimethyl-ethyl)-3-pyridin-3-yl-phenyl]-3,4-dimethoxy-benzamide] had a melting point of 234 to 237 °C. For the same molecule, the IC50 in series [1] was no less than 1 µM.
Take `CCc1cc(NC(=O)c2ccc(OC)c(OC)c2)ccc1C(C)(C)CNC(C)=O` [Example 200, N-[4-(2-Acetylamino-1,1-dimethyl-ethyl)-3-ethyl-phenyl]-3,4-dimethoxy-benzamide]: the melting point was in the range of 203 to 206 °C. For the same molecule, the IC50 in series [1] is less than 0.15 µM.
